Reference: BindingDB's records for doi:10.1016/s0960-894x(00)00535-7 (Kyoto University, 2000)
Where a SMILES comes first, the peptide text is derived from it. Bridges are numbered along the chain shown (N, C = ends). [ ]: non-standard residue; d: D form. 2Nal = N[C@@H](Cc1ccc2ccccc2c1)C(=O)O; Cit = NC(=O)NCCC[C@H](N)C(=O)O

Assay: Inhibition of HIV-induced cytopathogenicity in MT-4 cell
Work on C[C@H](NC(=O)[C@H](CCCN=C(N)N)NC(=O)[C@@H](N)CCCN=C(N)N)C(=O)N[C@H]1CSSC[C@@H](C(=O)N[C@@H](CCCN=C(N)N)C(=O)O)NC(=O)[C@H](CCCNC(N)=O)NC(=O)[C@H](CCCN=C(N)N)NC(=O)[C@H](Cc2ccc(O)cc2)NC(=O)[C@@H]2CCCN2C(=O)[C@@H](CCCCN)NC(=O)[C@H](CCCCN)NC(=O)[C@H](CCCN=C(N)N)NC(=O)[C@H](Cc2ccc(O)cc2)NC1=O yielded an EC50 of 2500 nM. In the case of C[C@@H]1NC(=O)[C@@H]2CCCN2C(=O)[C@@H](CCCCN)NC(=O)[C@H](CCCCN)NC(=O)[C@H](CCCN=C(N)N)NC(=O)[C@H](Cc2ccc(O)cc2)NC(=O)[C@@H](NC(=O)[C@H](Cc2ccc3ccccc3c2)NC(=O)[C@H](CCCN=C(N)N)NC(=O)[C@@H](N)CCCN=C(N)N)CSSC[C@@H](C(=O)N[C@@H](CCCN=C(N)N)C(=O)O)NC(=O)[C@H](CCCNC(N)=O)NC(=O)[C@H](CCCN=C(N)N)NC1=O, the EC50 is reported as 17 nM. In the case of NCCCC[C@@H]1NC(=O)[C@H](CCCN=C(N)N)NC(=O)[C@H](Cc2ccc(O)cc2)NC(=O)[C@@H](NC(=O)[C@H](Cc2ccc3ccccc3c2)NC(=O)[C@H](CCCNC(N)=O)NC(=O)[C@@H](N)CCCN=C(N)N)CSSC[C@@H](C(=O)N[C@@H](CCCN=C(N)N)C(=O)O)NC(=O)[C@H](CCCNC(N)=O)NC(=O)[C@H](CCCN=C(N)N)NC(=O)[C@H](Cc2ccc(O)cc2)NC(=O)[C@@H]2CCCN2C(=O)[C@@H](CCCCN)NC1=O, the EC50 is reported as 450 nM. Work on C[C@H](NC(=O)[C@@H]1CSSC[C@H](NC(=O)[C@H](Cc2ccc3ccccc3c2)NC(=O)[C@H](CCCN=C(N)N)NC(=O)[C@@H](N)CCCN=C(N)N)C(=O)N[C@@H](Cc2ccc(O)cc2)C(=O)N[C@@H](CCCN=C(N)N)C(=O)N[C@@H](CCCCN)C(=O)N[C@H](CCCCN)C(=O)N2CCC[C@H]2C(=O)N[C@@H](Cc2ccc(O)cc2)C(=O)N[C@@H](CCCN=C(N)N)C(=O)N[C@@H](CCCNC(N)=O)C(=O)N1)C(=O)O yielded an EC50 of 400 nM. C[C@H]1NC(=O)[C@H](CCCCN)NC(=O)[C@H](CCCN=C(N)N)NC(=O)[C@H](Cc2ccc(O)cc2)NC(=O)[C@@H](NC(=O)[C@H](Cc2ccc3ccccc3c2)NC(=O)[C@H](CCCN=C(N)N)NC(=O)[C@@H](N)CCCN=C(N)N)CSSC[C@@H](C(=O)N[C@@H](CCCN=C(N)N)C(=O)O)NC(=O)[C@H](CCCNC(N)=O)NC(=O)[C@H](CCCN=C(N)N)NC(=O)[C@H](Cc2ccc(O)cc2)NC(=O)[C@@H]2CCCN2C1=O gave an EC50 of 16 nM. For NCCCC[C@@H]1NC(=O)[C@H](CCCN=C(N)N)NC(=O)[C@H](Cc2ccc(O)cc2)NC(=O)[C@@H](NC(=O)[C@H](Cc2ccc3ccccc3c2)NC(=O)[C@H](CCCN=C(N)N)NC(=O)[C@@H](N)CCCNC(N)=O)CSSC[C@@H](C(=O)N[C@@H](CCCN=C(N)N)C(=O)O)NC(=O)[C@H](CCCNC(N)=O)NC(=O)[C@H](CCCN=C(N)N)NC(=O)[C@H](Cc2ccc(O)cc2)NC(=O)[C@@H]2CCCN2C(=O)[C@@H](CCCCN)NC1=O, the EC50 was 15 nM. In the case of NCCCC[C@@H]1NC(=O)[C@H](CCCN=C(N)N)NC(=O)[C@H](Cc2ccc(O)cc2)NC(=O)[C@@H](NC(=O)[C@H](Cc2c[nH]c3ccccc23)NC(=O)[C@H](CCCN=C(N)N)NC(=O)[C@@H](N)CCCN=C(N)N)CSSC[C@@H](C(=O)N[C@@H](CCCN=C(N)N)C(=O)O)NC(=O)[C@H](CCCNC(N)=O)NC(=O)[C@H](CCCN=C(N)N)NC(=O)[C@H](Cc2ccc(O)cc2)NC(=O)[C@@H]2CCCN2C(=O)[C@@H](CCCCN)NC1=O, the EC50 is reported as 8.3 nM. For NCCCC[C@@H]1NC(=O)[C@H](CCCNC(N)=O)NC(=O)[C@H](Cc2ccc(O)cc2)NC(=O)[C@@H](NC(=O)[C@H](Cc2ccc3ccccc3c2)NC(=O)[C@H](CCCN=C(N)N)NC(=O)[C@@H](N)CCCN=C(N)N)CSSC[C@@H](C(=O)N[C@@H](CCCN=C(N)N)C(=O)O)NC(=O)[C@H](CCCNC(N)=O)NC(=O)[C@H](CCCN=C(N)N)NC(=O)[C@H](Cc2ccc(O)cc2)NC(=O)[C@@H]2CCCN2C(=O)[C@@H](CCCCN)NC1=O, the EC50 was 2.8 nM. In the case of CC(N)C(=O)N[C@@H](CCCN=C(N)N)C(=O)N[C@@H](Cc1ccc2ccccc2c1)C(=O)N[C@H]1CSSC[C@@H](C(=O)N[C@@H](CCCN=C(N)N)C(=O)O)NC(=O)[C@H](CCCNC(N)=O)NC(=O)[C@H](CCCN=C(N)N)NC(=O)[C@H](Cc2ccc(O)cc2)NC(=O)[C@@H]2CCCN2C(=O)[C@@H](CCCCN)NC(=O)[C@H](CCCCN)NC(=O)[C@H](CCCN=C(N)N)NC(=O)[C@H](Cc2ccc(O)cc2)NC1=O (stereo partly specified), the EC50 is reported as 56 nM. Work on C[C@@H]1NC(=O)[C@H](CCCN=C(N)N)NC(=O)[C@H](Cc2ccc(O)cc2)NC(=O)[C@@H]2CCCN2C(=O)[C@@H](CCCCN)NC(=O)[C@H](CCCCN)NC(=O)[C@H](CCCN=C(N)N)NC(=O)[C@H](Cc2ccc(O)cc2)NC(=O)[C@@H](NC(=O)[C@H](Cc2ccc3ccccc3c2)NC(=O)[C@H](CCCN=C(N)N)NC(=O)[C@@H](N)CCCN=C(N)N)CSSC[C@@H](C(=O)N[C@@H](CCCN=C(N)N)C(=O)O)NC1=O yielded an EC50 of 16 nM. Work on NCCCC[C@H]1NC(=O)[C@H](CCCNC(N)=O)NC(=O)[C@H](CCCN=C(N)N)NC(=O)[C@H](Cc2ccc(O)cc2)NC(=O)[C@@H](NC(=O)[C@H](Cc2ccc3ccccc3c2)NC(=O)[C@H](CCCN=C(N)N)NC(=O)[C@@H](N)CCCN=C(N)N)CSSC[C@@H](C(=O)N[C@@H](CCCN=C(N)N)C(=O)O)NC(=O)[C@H](CCCNC(N)=O)NC(=O)[C@H](CCCN=C(N)N)NC(=O)[C@H](Cc2ccc(O)cc2)NC(=O)[C@@H]2CCCN2C1=O yielded an EC50 of 16 nM. Work on C[C@@H]1NC(=O)[C@H](CCCN=C(N)N)NC(=O)[C@H](Cc2ccc(O)cc2)NC(=O)[C@@H](NC(=O)[C@H](Cc2ccc3ccccc3c2)NC(=O)[C@H](CCCN=C(N)N)NC(=O)[C@@H](N)CCCN=C(N)N)CSSC[C@@H](C(=O)N[C@@H](CCCN=C(N)N)C(=O)O)NC(=O)[C@H](CCCNC(N)=O)NC(=O)[C@H](CCCN=C(N)N)NC(=O)[C@H](Cc2ccc(O)cc2)NC(=O)[C@@H]2CCCN2C(=O)[C@@H](CCCCN)NC1=O yielded an EC50 of 47 nM. Work on C[C@@H]1NC(=O)[C@@H](CCCCN)NC(=O)[C@H](CCCCN)NC(=O)[C@H](CCCN=C(N)N)NC(=O)[C@H](Cc2ccc(O)cc2)NC(=O)[C@@H](NC(=O)[C@H](Cc2ccc3ccccc3c2)NC(=O)[C@H](CCCN=C(N)N)NC(=O)[C@@H](N)CCCN=C(N)N)CSSC[C@@H](C(=O)N[C@@H](CCCN=C(N)N)C(=O)O)NC(=O)[C@H](CCCNC(N)=O)NC(=O)[C@H](CCCN=C(N)N)NC(=O)[C@H](Cc2ccc(O)cc2)NC1=O (H-RR[2Nal]CYRK[dK]AYR[Cit]CR-OH; disulfide 4-13) yielded an EC50 of 17 nM. In the case of NCCCC[C@@H]1NC(=O)[C@H](CCCN=C(N)N)NC(=O)[C@H](Cc2ccc(O)cc2)NC(=O)[C@@H](NC(=O)[C@H](Cc2ccc3ccccc3c2)NC(=O)[C@H](CCCN=C(N)N)NC(=O)[C@@H](N)CCCN=C(N)N)CSSC[C@@H](C(=O)N[C@@H](CCCN=C(N)N)C(=O)O)NC(=O)[C@H](CCCNC(N)=O)NC(=O)[C@H](CCCN=C(N)N)NC(=O)[C@H](Cc2ccc(O)cc2)NC(=O)[C@@H]2CCCN2C(=O)[C@@H](CCCCN)NC1=O (H-RR[2Nal]CYRK[dK]PYR[Cit]CR-OH; disulfide 4-13), the EC50 is reported as 3.3 nM. In the case of C[C@H](NC(=O)[C@@H](N)CCCN=C(N)N)C(=O)N[C@@H](Cc1ccc2ccccc2c1)C(=O)N[C@H]1CSSC[C@@H](C(=O)N[C@@H](CCCN=C(N)N)C(=O)O)NC(=O)[C@H](CCCNC(N)=O)NC(=O)[C@H](CCCN=C(N)N)NC(=O)[C@H](Cc2ccc(O)cc2)NC(=O)[C@@H]2CCCN2C(=O)[C@@H](CCCCN)NC(=O)[C@H](CCCCN)NC(=O)[C@H](CCCN=C(N)N)NC(=O)[C@H](Cc2ccc(O)cc2)NC1=O [TC-14001], the EC50 is reported as 1300 nM. Work on C[C@@H]1NC(=O)[C@H](Cc2ccc(O)cc2)NC(=O)[C@@H](NC(=O)[C@H](Cc2ccc3ccccc3c2)NC(=O)[C@H](CCCN=C(N)N)NC(=O)[C@@H](N)CCCN=C(N)N)CSSC[C@@H](C(=O)N[C@@H](CCCN=C(N)N)C(=O)O)NC(=O)[C@H](CCCNC(N)=O)NC(=O)[C@H](CCCN=C(N)N)NC(=O)[C@H](Cc2ccc(O)cc2)NC(=O)[C@@H]2CCCN2C(=O)[C@@H](CCCCN)NC(=O)[C@H](CCCCN)NC1=O [TC-14002] yielded an EC50 of 9.3 nM. In the case of NCCCC[C@@H]1NC(=O)[C@H](CCCN=C(N)N)NC(=O)[C@H](Cc2ccc(O)cc2)NC(=O)[C@@H](NC(=O)[C@H](Cc2ccc3ccccc3c2)NC(=O)[C@H](CCCN=C(N)N)NC(=O)[C@@H](N)CCCN=C(N)N)CSSC[C@@H](C(=O)N[C@@H](CCCN=C(N)N)C(=O)O)NC(=O)[C@H](CCCNC(N)=O)NC(=O)[C@H](CCCNC(N)=O)NC(=O)[C@H](Cc2ccc(O)cc2)NC(=O)[C@@H]2CCCN2C(=O)[C@@H](CCCCN)NC1=O [TC-14003], the EC50 is reported as 15 nM. With NCCCC[C@@H]1NC(=O)[C@H](CCCN=C(N)N)NC(=O)[C@H](Cc2ccc(O)cc2)NC(=O)[C@@H](NC(=O)[C@H](Cc2ccc3ccccc3c2)NC(=O)[C@H](CCCN=C(N)N)NC(=O)[C@@H](N)CCCN=C(N)N)CSSC[C@@H](C(=O)N[C@@H](CCCN=C(N)N)C(=O)O)NC(=O)[C@H](CCCNC(N)=O)NC(=O)[C@H](CCCN=C(N)N)NC(=O)[C@H](Cc2ccc(O)cc2)NC(=O)[C@@H]2CCCN2C(=O)[C@@H](CCCNC(N)=O)NC1=O [TC-14004] the EC50 was 4 nM. In the case of C[C@@H]1NC(=O)[C@@H](NC(=O)[C@H](Cc2ccc3ccccc3c2)NC(=O)[C@H](CCCN=C(N)N)NC(=O)[C@@H](N)CCCN=C(N)N)CSSC[C@@H](C(=O)N[C@@H](CCCN=C(N)N)C(=O)O)NC(=O)[C@H](CCCNC(N)=O)NC(=O)[C@H](CCCN=C(N)N)NC(=O)[C@H](Cc2ccc(O)cc2)NC(=O)[C@@H]2CCCN2C(=O)[C@@H](CCCCN)NC(=O)[C@H](CCCCN)NC(=O)[C@H](CCCN=C(N)N)NC1=O [TC-14005], the EC50 is reported as 360 nM. With NCCCC[C@@H]1NC(=O)[C@H](CCCN=C(N)N)NC(=O)[C@H](Cc2ccc(O)cc2)NC(=O)[C@@H](NC(=O)[C@H](Cc2ccc3ccccc3c2)NC(=O)[C@H](CCCN=C(N)N)NC(=O)[C@@H](N)CCCN=C(N)N)CSSC[C@@H](C(=O)N[C@@H](CCCNC(N)=O)C(=O)O)NC(=O)[C@H](CCCNC(N)=O)NC(=O)[C@H](CCCN=C(N)N)NC(=O)[C@H](Cc2ccc(O)cc2)NC(=O)[C@@H]2CCCN2C(=O)[C@@H](CCCCN)NC1=O [TC-14006] the EC50 was 880 nM. With C[C@@H]1NC(=O)[C@H](Cc2ccc(O)cc2)NC(=O)[C@@H]2CCCN2C(=O)[C@@H](CCCCN)NC(=O)[C@H](CCCCN)NC(=O)[C@H](CCCN=C(N)N)NC(=O)[C@H](Cc2ccc(O)cc2)NC(=O)[C@@H](NC(=O)[C@H](Cc2ccc3ccccc3c2)NC(=O)[C@H](CCCN=C(N)N)NC(=O)[C@@H](N)CCCN=C(N)N)CSSC[C@@H](C(=O)N[C@@H](CCCN=C(N)N)C(=O)O)NC(=O)[C@H](CCCNC(N)=O)NC1=O [TC-14007] the EC50 was 18 nM.
